Results reported in ChEMBL document CHEMBL4261621, “Synthesis of enamino-2-oxindoles via conjugate addition between α-azido ketones and 3-alkenyl oxindoles: Cytotoxicity evaluation and apoptosis inducing studies” (Bioorg Med Chem Lett, 2018).

Assays:
MDA-MB-231 [1] = assay: Cytotoxicity against human MDA-MB-231 cells after 72 hrs by MTT assay; assay type: functional, cell-based; details: MDA-MB-231, 72 h
NCI-H460 [2] = assay: Cytotoxicity against human NCI-H460 cells after 72 hrs by MTT assay; assay type: functional, cell-based; details: NCI-H460, 72 h
HeLa [3] = assay: Cytotoxicity against human HeLa cells after 72 hrs by MTT assay; assay type: functional, cell-based
HCT-116 [4] = assay: Cytotoxicity against human HCT116 cells at 30 uM after 48 hrs by MTT assay relative to control; assay type: functional
HCT-15 [5] = assay: Cytotoxicity against human HCT15 cells after 72 hrs by MTT assay; assay type: functional, cell-based; details: HCT-15, 72 h
HeLa [6] = assay: Cytotoxicity against human HeLa cells at 30 uM after 48 hrs by MTT assay relative to control; assay type: functional
HCT-116 [7] = assay: Cytotoxicity against human HCT116 cells after 72 hrs by MTT assay; assay type: functional, cell-based; details: HCT-116, 72 h
NCI-H460 [8] = assay: Cytotoxicity against human NCI-H460 cells at 30 uM after 48 hrs by MTT assay relative to control; assay type: functional
HCT-15 [9] = assay: Cytotoxicity against human HCT15 cells at 30 uM after 48 hrs by MTT assay relative to control; assay type: functional
A549 [10] = assay: Cytotoxicity against human A549 cells after 72 hrs by MTT assay; assay type: functional, cell-based; details: A549, 72 h
MDA-MB-231 [11] = assay: Cytotoxicity against human MDA-MB-231 cells at 30 uM after 48 hrs by MTT assay relative to control; assay type: functional
A549 [12] = assay: Cytotoxicity against human A549 cells at 30 uM after 48 hrs by MTT assay relative to control; assay type: functional

Row | SMILES | IC50 (MDA-MB-231 [1]) [µM] | IC50 (NCI-H460 [2]) [µM] | IC50 (HeLa [3]) [µM] | Activity (HCT-116 [4]) [%] | IC50 (HCT-15 [5]) [µM] | Activity (HeLa [6]) [%] | IC50 (HCT-116 [7]) [µM] | Activity (NCI-H460 [8]) [%] | Activity (HCT-15 [9]) [%] | IC50 (A549 [10]) [µM] | Activity (MDA-MB-231 [11]) [%] | Activity (A549 [12]) [%]
1 | CCOC(=O)/C(=C(\N)C(=O)c1ccccc1)C1C(=O)N(Cc2ccccc2)c2ccc(Br)cc21 (stereo unspecified) | 28.2 | 18.5 | 25.6 | >50 | 26.1 | >50 | 28.7 | >50 | >50 | 27.7 | >50 | >50
2 | CCOC(=O)/C(=C(\N)C(=O)c1ccc(OC)cc1)C1C(=O)N(Cc2ccccc2)c2ccc(Cl)cc21 (stereo unspecified) | 6.96 | 3.32 | 3.72 | >50 | 3.15 | >50 | 3.82 | >50 | >50 | 3.25 | >50 | >50
3 | COC(=O)/C(=C(\N)C(=O)c1ccccc1)C1C(=O)Nc2ccc(Br)cc21 (stereo unspecified) | 6.85 | 27.6 | 12.2 | >50 | 28.5 | >50 | 25.9 | >50 | >50 | 13 | >50 | >50
4 | O=c1[nH]cc(F)c(=O)[nH]1 [FLUOROURACIL] | 21.1 | 11.8 | 10.8 | – | 11.9 | – | 11.6 | – | – | 4.3 | – | –
5 | COC(=O)/C(=C(\N)C(=O)c1ccccc1)C1C(=O)N(Cc2ccccc2)c2ccc(C)cc21 (stereo unspecified) | 13.9 | 1.51 | 6.28 | >50 | 2.67 | >50 | 3.31 | >50 | >50 | 6.6 | >50 | >50
6 | CCOC(=O)/C(=C(\N)C(=O)c1ccccc1)C1C(=O)N(Cc2ccc(Br)cc2)c2ccccc21 (stereo unspecified) | 7.13 | 3.9 | 7.28 | >50 | 3.17 | >50 | 3.26 | >50 | >50 | 3.23 | >50 | >50
